Test results: ChEMBL document CHEMBL1201862, “PubChem BioAssay data set” (2004)
Calls of active or inactive are those of the source.

How the values were obtained:
[1] = cytotoxicity in OVCAR8 ovarian cancer cells, dose response, PAX8 project, cell-based, plate reader, dry powder samples (AID 743197); type: functional; conditions: OVCAR-8
Paired box protein Pax-8 = Paired box protein Pax-8 (Homo sapiens, UniProt Q06710); assay: inhibitors of PAX8-driven TPO luciferase reporter, dose response, RMG-I cells, cherry-pick (AID 687027); type: functional, cell-based;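 also: luciferase reporter driven by Pax8 target thyroperoxidase promoter measured by SteadyGlo luminescence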
Sequence of Paired box protein Pax-8 (Q06710 whole entry): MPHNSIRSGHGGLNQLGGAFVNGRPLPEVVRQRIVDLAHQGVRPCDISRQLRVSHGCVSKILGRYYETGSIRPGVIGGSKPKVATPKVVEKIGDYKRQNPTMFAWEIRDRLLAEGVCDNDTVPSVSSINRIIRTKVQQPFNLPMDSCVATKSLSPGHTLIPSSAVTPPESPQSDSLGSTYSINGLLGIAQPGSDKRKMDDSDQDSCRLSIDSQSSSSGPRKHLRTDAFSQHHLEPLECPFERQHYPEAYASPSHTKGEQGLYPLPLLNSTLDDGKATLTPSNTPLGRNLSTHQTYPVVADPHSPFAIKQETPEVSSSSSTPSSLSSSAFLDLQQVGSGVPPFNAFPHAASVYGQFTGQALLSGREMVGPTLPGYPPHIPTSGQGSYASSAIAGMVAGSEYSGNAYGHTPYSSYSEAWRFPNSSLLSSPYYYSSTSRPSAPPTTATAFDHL

[2] = IGROV1 ovarian cancer cell cytotoxicity, dose response, PAX8 inhibitor project, plate reader, dry powder samples (AID 743043); type: functional, cell-based; conditions: IGROV-1
[3] = lymphoblastoid cell cytotoxicity, dose response, cytotoxicity control, plate reader, dry powder, set 2 (AID 624367); type: functional
[4] = molecular target: Metabotropic glutamate receptor 3 (Rattus norvegicus, UniProt P31422); assay: mGlu3 NAM potency via calcium readout, dose response, mGlu3 NAM project, TREx293 cells, Galpha15, calcium flux (AID 651840); type: functional
Sequence of Metabotropic glutamate receptor 3 (P31422 whole entry): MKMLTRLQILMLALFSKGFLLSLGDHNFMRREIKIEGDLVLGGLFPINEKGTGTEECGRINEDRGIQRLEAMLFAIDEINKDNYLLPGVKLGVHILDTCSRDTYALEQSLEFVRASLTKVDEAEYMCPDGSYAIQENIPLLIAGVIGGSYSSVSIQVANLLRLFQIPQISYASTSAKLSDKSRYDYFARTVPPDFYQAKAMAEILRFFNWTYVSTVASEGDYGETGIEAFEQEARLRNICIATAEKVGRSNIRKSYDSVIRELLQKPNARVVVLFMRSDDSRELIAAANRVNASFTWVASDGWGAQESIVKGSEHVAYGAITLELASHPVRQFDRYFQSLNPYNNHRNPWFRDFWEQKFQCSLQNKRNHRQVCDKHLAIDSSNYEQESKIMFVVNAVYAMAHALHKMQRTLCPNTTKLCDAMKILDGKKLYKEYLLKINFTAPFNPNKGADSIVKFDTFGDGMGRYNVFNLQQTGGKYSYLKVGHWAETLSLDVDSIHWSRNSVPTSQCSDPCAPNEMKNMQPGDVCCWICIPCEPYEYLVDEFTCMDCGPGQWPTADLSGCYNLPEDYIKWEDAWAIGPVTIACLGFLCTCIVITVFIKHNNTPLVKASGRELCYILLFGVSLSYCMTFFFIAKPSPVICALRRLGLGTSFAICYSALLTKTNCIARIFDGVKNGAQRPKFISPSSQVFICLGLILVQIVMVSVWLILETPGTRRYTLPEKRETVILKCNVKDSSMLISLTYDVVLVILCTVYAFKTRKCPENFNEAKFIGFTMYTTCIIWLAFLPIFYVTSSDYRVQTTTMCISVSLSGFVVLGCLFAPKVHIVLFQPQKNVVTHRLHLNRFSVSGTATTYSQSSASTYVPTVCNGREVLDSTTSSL

[5] = HepG2 cell cytotoxicity, dose response, cytotoxicity control, cherry-picks, set 5 (AID 1053118); type: functional, cell-based
[6] = HEK293 cell cytotoxicity, dose response, cytotoxicity control, cherry-picks, set 5 (AID 1053117); type: functional, cell-based
[7] = LGR2 antagonists, dose response, cell-based, HEK293, CRE-luciferase reporter, cherry pick (AID 743342); type: functional
[8] = HepG2 cell cytotoxicity, dose response, cytotoxicity control, plate reader, cherry-pick, antagonist series (AID 743416); type: functional, cell-based
[9] = HEK293 cell cytotoxicity, dose response, cytotoxicity control, plate reader, cherry-picked samples (AID 743446); type: functional, cell-based
[10] = A549 cell cytotoxicity, dose response, cytotoxicity control, plate reader, cherry-pick, antagonist series (AID 743412); type: functional, cell-based
[11] = MC4R antagonists, dose response, counter-screen for LGR2 antagonist project, cell-based, plate reader, cherry pick (AID 743444); type: functional;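 also: transfected HEK 293 cells stimulated with alpha-MSH peptide; potency of inhibitors of the alpha-MSH evoked signal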
[12] = molecular target: T1, High affinity choline transporter 1 (Homo sapiens, UniProt Q9GZV3); assay: CHT choline uptake inhibitors, dose response, cell-based, HEK-293 hCHT, [3H]-choline uptake (AID 652177); type: functional
T1 sequence (Q9GZV3 whole entry): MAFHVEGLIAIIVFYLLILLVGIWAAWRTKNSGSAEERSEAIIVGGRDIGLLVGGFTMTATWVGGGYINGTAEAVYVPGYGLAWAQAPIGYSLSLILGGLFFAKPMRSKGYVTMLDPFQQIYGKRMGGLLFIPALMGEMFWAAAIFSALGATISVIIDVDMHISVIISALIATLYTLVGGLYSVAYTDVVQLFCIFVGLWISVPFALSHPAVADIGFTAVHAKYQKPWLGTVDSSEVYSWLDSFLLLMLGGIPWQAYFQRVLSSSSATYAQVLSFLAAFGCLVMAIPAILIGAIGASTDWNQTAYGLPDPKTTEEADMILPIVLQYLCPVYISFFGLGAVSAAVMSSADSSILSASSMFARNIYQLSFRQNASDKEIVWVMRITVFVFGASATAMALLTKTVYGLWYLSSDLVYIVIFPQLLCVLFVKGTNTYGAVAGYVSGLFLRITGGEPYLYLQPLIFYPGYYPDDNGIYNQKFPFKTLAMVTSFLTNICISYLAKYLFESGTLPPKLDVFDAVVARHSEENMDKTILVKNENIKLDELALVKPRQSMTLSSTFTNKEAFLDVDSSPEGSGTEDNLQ

[13] = molecular target: Potassium channel subfamily K member 9 (Homo sapiens, UniProt Q9NPC2); assay: TASK3 (KCNK9) channel inhibitors, thallium flux, SAR follow-up, selectivity assay for TASK1 inhibitor project, cell-based, FluxOR thallium flux, concentration-response (AID 652211); type: functional;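 also: potency is for inhibitors of the channel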
Sequence of Potassium channel subfamily K member 9 (Q9NPC2 whole entry): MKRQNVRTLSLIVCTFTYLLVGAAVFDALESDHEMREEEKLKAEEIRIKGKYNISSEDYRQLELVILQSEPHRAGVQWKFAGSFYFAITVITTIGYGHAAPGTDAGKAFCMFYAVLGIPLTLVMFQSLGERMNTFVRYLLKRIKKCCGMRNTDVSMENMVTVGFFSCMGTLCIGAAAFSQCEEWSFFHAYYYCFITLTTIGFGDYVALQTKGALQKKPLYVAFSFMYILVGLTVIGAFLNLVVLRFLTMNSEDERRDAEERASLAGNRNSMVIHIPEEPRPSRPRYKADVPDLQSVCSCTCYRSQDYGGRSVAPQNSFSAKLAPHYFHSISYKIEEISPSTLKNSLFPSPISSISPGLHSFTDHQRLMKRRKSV

[14] = molecular target: Potassium channel subfamily K member 3 (Homo sapiens, UniProt O14649); assay: TASK1 (KCNK3) potassium channel inhibitors, SAR follow-up, CHO cells, FluxOR thallium flux (AID 652212); type: functional
Sequence of Potassium channel subfamily K member 3 (O14649 whole entry): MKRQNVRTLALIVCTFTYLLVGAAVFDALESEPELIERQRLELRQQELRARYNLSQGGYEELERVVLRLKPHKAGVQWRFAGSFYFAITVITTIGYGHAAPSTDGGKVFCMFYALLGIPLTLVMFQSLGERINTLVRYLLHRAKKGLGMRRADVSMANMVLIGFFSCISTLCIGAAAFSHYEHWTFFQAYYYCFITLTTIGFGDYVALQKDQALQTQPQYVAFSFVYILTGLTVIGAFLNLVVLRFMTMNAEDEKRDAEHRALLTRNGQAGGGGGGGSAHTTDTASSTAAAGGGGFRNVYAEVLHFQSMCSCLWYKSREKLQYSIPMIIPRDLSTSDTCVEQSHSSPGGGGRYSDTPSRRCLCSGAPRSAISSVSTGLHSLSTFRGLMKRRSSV

[15] = HepG2 cell cytotoxicity, dose response, cytotoxicity control, luminescence plate reader, powder samples, set 2 (AID 651860); type: functional, cell-based
[16] = A375 melanoma cell viability loss, dose response, counter-screen for MITF inhibitor project, CellTiter-Glo luminescence, dry powder, set 4 (AID 624364); type: functional, cell-based; conditions: A-375;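 also: A375 melanoma cells are MITF independent so this is a counter screen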
[17] = A375 melanoma cell cytotoxicity, dose response, counter-screen for MITF inhibitor project, CellTiter-Glo luminescence, dry powder, set 2 (AID 624489); type: functional, cell-based; conditions: A-375;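 also: actives are compounds lowering A375 viability meaning general cytotoxicity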

SMILES: COc1cccc(-c2ccc([C@H]3[C@@H](CO)N(C(=O)c4ccccn4)[C@H]3C#N)cc2)c1
- AC50 [1]: 39.2 µM (active)
- AC50 (Paired box protein Pax-8): 7.31 µM (active)
- AC50 [2]: 68.1 µM (active)

SMILES: Cc1cc(C(=O)Nc2ccc3c(c2)C(=O)N(C)[C@@H]2CC[C@H](CC(=O)NCc4ccc(-c5ccccc5)cc4)O[C@@H]2CO3)no1
- AbsAC35 [3]: 211.39 µM

SMILES: COc1ccc(C#Cc2ccc(C(=O)N3CCC(=O)C(C)(C)C3)cc2)cc1
- IC50 [4]: 3.13 µM

SMILES: CO[C@@H]1CN(C)C(=O)c2cc(NC(=O)Nc3cc(Cl)cc(Cl)c3)ccc2OC[C@H](C)NC[C@@H]1C
- AC50 [5]: 13.1 µM (active)
- AC50 [6]: 15.8 µM (active)

SMILES: COc1ccc(NC(=O)Nc2ccc3c(c2)C(=O)N([C@H](C)CO)C[C@H](C)[C@H](CN(C)CC2CCCCC2)OCCCC[C@H](C)O3)cc1
- AC50 [7]: 38.9 µM (active)
- AC50 [8]: 13.7 µM (active)
- AC50 [9]: 40.3 µM (active)
- AC50 [10]: 17.9 µM (active)
- AC50 [11]: 42.7 µM (active)

SMILES: CCn1cc(CNC(=O)c2ccc(OC)c(OC3CCN(C(C)C)CC3)c2)cn1
- IC50 [12]: 6.81 µM (active)

SMILES: COc1cccc(OC)c1C(=O)Nc1cccc(NC(=O)c2cccc(C)c2)c1
- IC50 [13]: 19.2 µM (active)
- IC50 [14]: 148 nM (active)

SMILES: Cc1ccc(S(=O)(=O)Nc2cc(C(C(=O)OC(C)C)C(=O)C(F)(F)F)c(O)c3ccccc23)cc1 (stereo not drawn)
- AC50 [15]: > 52 µM (inactive)

SMILES: C=CCNC1=C(NCCN(CC)CC)C(=O)c2ccccc2C1=O
- AC50 [16]: 36 µM (active)
- AC50 [17]: 17.4 µM (active)
